Patent US20020168389A1, “Stable skin conditioning compositions containing retinoid boosters” (priority 2000, published 2002)

Legend:
TGase I = assay: Transglutaminase (TGase I ELISA) assay in cultured keratinocytes with retinol; format: cell-based; details: Keratinocyte, read-out: Overall TG (IC 50)
Retinal Reductase = assay: Assay for Retinal Reductase Activity, rat liver microsomes (to identify B3); format: biochemical; details: test compound final 100 μM
Procedure: The resulting homogenate was successively centrifuged for 30 min. at 10,000 g, 30 min. at 20,000 g, and 15 min. at 30,000 g, and the resulting supernatant was ultracentrifuged for 80 min. at 105,000 g. […] Protein concentrations were determined as described above. […] All stock solution were prepared as above with the following substitutions: 10 mM all trans Retinaldehyde (Sigma R2500) in DMSO—instead of retinol. 200 mM, Nicotinamide adenine dinucleotide phosphate, reduced form, tetrasodium salt (NADPH) (Sigma N7505) in sterile water—instead of NADP. In a two-dram glass vial with screw cap, add the following in order: […] 25 μl diluted Microsomes (final=100 μg)—use boiled Microsomes for controls and regular Microsomes for test samples. […] 3 μl of 10 mM retinaldehyde (final=75 μM) Follow the same incubation and extraction procedure as detailed above. […] Aliquots of 60 μL were injected immediately and analyzed for retinoid content. The chromatography instrumentation consisted of a Waters 600 gradient controller/pump, a Waters 996 Photodiode Array detector and a Waters 474 Scanning Fluorescence detector. Two HPLC protocols were used for retinoid analysis. […] The eluate was monitored for absorbance at 325 nm and fluorescence at 325 ex/480 em. […] B. Barua, “Analysis of Water-Soluble Compounds: Glucuronides”, Methods Enzymol. 189, 136-145 (1990). […] These protocols were selected based on their ability to clearly resolve pertinent retinoid acids, alcohols, aldehydes, and/or esters for each assay and relative quickness of separation. Identification of individual retinoids by HPLC was based on an exact match of the retention time of unknown peaks with that of available authentic retinoid standards and UV spectra analysis (300-400 nm) of unknown peaks against available authentic retinoids.

Retinol Dehydrogenase = assay: Assay for Retinol Dehydrogenase Activity, rat liver microsomes (to identify B2); format: biochemical; details: ranking among B2 compounds
Procedure: The resulting homogenate was successively centrifuged for 30 min. at 10,000 g, 30 min. at 20,000 g, and 15 min. at 30,000 g, and the resulting supernatant was ultracentrifuged for 80 min. at 105,000 g. […] Protein concentrations were determined as described above.
2.4 Assay for Retinol Dehydrogenase Activity (To identify B2)
The following stock solutions were prepared:
50 mM KH2PO4, pH 7.4 buffer, sterile filtered.
10 mM all trans Retinol (Sigma R7632) in DMSO.
200 mM Nicotinamide adenine dinucleotide phosphate, sodium salt (NADP) (Sigma N0505) in sterile water.
40 mM test compound in appropriate solvent (water, buffer, ethanol, chloroform or DMSO).
1:10 dilution of rat liver Microsomes in 50 mM KH2PO4, pH 7.4 buffer (4 ug/ul).
In a two-dram glass vial with screw cap, add the following in order:
Buffer to give a final volume of 400 μl
25 μl diluted Microsomes (final=100 μg)−use boiled Microsomes for controls and regular Microsomes for test samples.
4 μl of 200 mM NADP (final=2 mM)
1 μl of 40 mM test compound (final=100 μM)
8 μl of 10 mM retinol (final=200 μM) […]
Aliquots of 60 μL were injected immediately and analyzed for retinoid content.
The chromatography instrumentation consisted of a Waters 600 gradient controller/pump, a Waters 996 Photodiode Array detector and a Waters 474 Scanning Fluorescence detector. […] The eluate was monitored for absorbance at 325 nm and fluorescence at 325 ex/480 em. […]

Compound | % lnhibition Retinal Reductase (Retinal Reductase) [%] | also measured
Oc1cccc2cccnc12 [Hydroxyquinoline, Hydroxyquinoline (Carbostyril)] |  | IC50 (TGase I): 364 µM
CCCCCCCCCCCCCC(=O)O [Myristic Acid] | 26 | 
COc1cc(C=O)ccc1O [Vanillin] | 6 | 
Phosphatidyl Choline |  | activity as activator of Retinol Dehydrogenase (in words) (Retinol Dehydrogenase): Most preferred as most active activator of
Phosphatidyl ethanolamine | 37 | 
